Assay results published in patent US20250129095A1, “ANNULATED 2-AMINO-3-CYANO THIOPHENES AND DERIVATIVES FOR THE TREATMENT OF CANCER” (Boehringer Ingelheim Int'l GmbH Corp., priority 2021, published 2025).

What was measured:
MKN1 cells [1] = assay: MKN1 CTG proliferation assay (120 h) (gastric cancer, wt amplified), assay 2; format: cell-based; details: Homo sapiens, MKN-1
Protocol: (§1) SAS cells (JCRB0260) are dispensed into 384-well plates, flat and clear bottom (Greiner, PNr. 781091) at a density of 300 cells per well in 60 μL DMEM:F12 (Gibco 31330-038)+10% Fetal Calf Serum (HyClone, PNr.: SH30084.03) and incubated at 37° C. in a CO2 incubator overnight The next day, compounds (10 mM stock in DMSO) are added with the ECHO acoustic liquid handler system (Beckman Coulter), including DMSO controls. Plates are incubated for 120 h, and cell viability is measured using CellTiter-Glo luminescent cell viability reagent (Promega product code G7570). Viability (stated as percent of control) is defined as relative luminescence units RLU of each well divided by the RLU of cells in DMSO controls.
(§2) MKN1 cells (JCRB0252) are dispensed into white 384-well plates, flat and white bottom (Perkin Elmer, 6007680) at a density of 500 cells per well in 40 μl RPMI (Gibco, PNr.: 21875034)+10% FCS (HyClone, PNr.: SH30084.03) (assay 1) or into black 384-well plates, flat and clear bottom (Greiner, PNr. 781091) at a density of 200 cells per well in 60 μl RPMI-1640 (Gibco #A10491)+10% FCS (HyClone, PNr.: SH30084.03)+PenStrep (Gibco, PNr.15140-122) (assay 2). […] Compounds (10 mM stock in DMSO) are added at logarithmic dose series using the HP Digital Dispenser D300 (Tecan) (assay 1) or the ECHO acoustic liquid handler system (Beckman Coulter) (assay 2), including DMSO controls and normalizing for added DMSO. Plates are incubated for 120 h, and cell viability is measured using CellTiter-Glo luminescent cell viability reagent (Promega product code G7570). Viability (stated as percent of control) is defined as relative luminescence units RLU of each well divided by the RLU of cells in DMSO controls.

GP2D cells = assay: GP2D proliferation assay (120 h) (colorectal cancer, G12D); format: cell-based
Protocol: GP2D cells (ATCC No. CRL-5807) are dispensed into white 384-well plates, flat and white bottom (Perkin Elmer, 6007680) at a density of 500 cells per well in 40 μl DMEM (Sigma, D6429)+1× GlutaMAX (Gibco, 35050038)+10% FCS (fetal calf serum). […] Compounds (10 mM stock in DMSO) are added at logarithmic dose series using the HP Digital Dispenser D300 (Tecan), including DMSO controls and normalizing for added DMSO. For the TO time point measurement, untreated cells are analyzed at the time of compound addition. Plates are incubated for 120 h, and cell viability is measured using CellTiter-Glo luminescent cell viability reagent (Promega product code G7570). Viability (stated as percent of control) is defined as relative luminescence units RLU of each well divided by the RLU of cells in DMSO controls.

Caco-2 assay = format: in vitro ADME; details: human, 10 μM test compound, pH 7.4; for Papp A→B at 90 min, 10 μM: Caco-2, apical to basolateral (a-b) permeability, read-out: Caco PappAB; for efflux ratio at 90 min, 10 μM: Caco-2 efflux ratio PappBA/PappAB, read-out: Caco ER
Text: The assay provides information on the potential of a compound to pass the cell membrane, on the extent of oral absorption as well as on whether the compound is actively transported by uptake and/or efflux transporters. Permeability measurements across polarized, confluent Caco-2 cell monolayers grown on permeable filter supports (Corning, catalog #3391) are used. […] The receiver and donor compartments contain 0.25% bovine serum albumine (BSA) in assay buffer. Passive diffusion and/or active transport of compounds across the monolayer is measured in both apical to basolateral (a-b) and basolateral to apical (b-a) direction. a-b permeability (PappAB) represents drug absorption from the intestine into the blood and b-a permeability (PappBA) drug secretion from the blood back into the intestine via both passive permeability as well as active transport mechanisms mediated by efflux and uptake transporters that are expressed on the Caco-2 cells. After a pre-incubation of 25-30 min at 37° C., at predefined time points (0, 30, 60 and 90 min), samples were taken from the receiver and donor compartment, respectively.
Concentrations of test compounds in samples were measured by HPLC/MS/MS, samples from the donor compartment were diluted 1:50 (v:v) with assay buffer, samples from receiver compartment were measured without dilution.
Apparent permeabilities in a-b (PappAB) and b-a (PappBA) directions are calculated according to the formula:
[formula] • Vrec [mL]: buffer volume in receiver compartment • Cdon [pmol/mL]: concentration of test compound in donor compartment at t=0 • ΔCrec: difference between concentrations of test compound in receiver compartment at start and end of incubation time • Δt: Incubation time • Vrec·ΔCrec/Δt [[…]]: Amount of compound transferred to receiver compartment per time • A [cm^2]: filter surface
Caco-2 efflux ratios (ER) are calculated as the ratio of PappBA/PappAB.

MKN1 cells [2] = assay: MKN1 CTG proliferation assay (120 h) (gastric cancer, wt amplified), assay 1; format: cell-based; details: Homo sapiens, MKN-1
Protocol: as §1, §2

Row | IC50 (MKN1 cells [1]) [nM] | IC50 (GP2D cells) [nM] | Papp A→B at 90 min, 10 μM (Caco-2 assay) [×10⁻⁶ cm/s] | efflux ratio at 90 min, 10 μM (Caco-2 assay) | IC50 (MKN1 cells [2]) [nM] | SMILES
1 | 109 |  |  |  |  | C[C@H](Oc1cc(Oc2cccnc2)nc(-c2onc3c2CCC[C@@]32CCCc3sc(N)c(C#N)c32)n1)[C@@H]1CCCN1C [Example I-2]
2 |  | 12 | 18 | 1.3 |  | C[C@H](Oc1cc(Oc2cncnc2)nc(-c2onc3c2CCC[C@@]32CCCc3sc(N)c(C#N)c32)n1)[C@@H]1CCCN1C [Example I-3]
3 |  |  | 4.3 | 7.7 |  | COC[C@H](C)Nc1cc(O[C@@H](C)[C@@H]2CCCN2C)nc(-c2onc3c2CCC[C@@]32CCCc3sc(N)c(C#N)c32)n1 [Example I-5]
4 |  |  |  | 2.5 |  | C[C@H](Oc1cc(Nc2ccccn2)nc(-c2onc3c2CCC[C@@]32CCCc3sc(N)c(C#N)c32)n1)[C@@H]1CCCN1C [Example I-6]
5 | 108 | 11 |  |  |  | C[C@H](Oc1cc(OCC2(N(C)C)COC2)nc(-c2onc3c2CCC[C@@]32CCCc3sc(N)c(C#N)c32)n1)[C@@H]1CCCN1C [Example I-8]
6 | 43 | 10 | 17 | 1.5 |  | C[C@H](Oc1cc(Oc2cncnc2)nc(-c2noc3c2CCC[C@@]32CCCc3sc(N)c(C#N)c32)n1)[C@@H]1CCCN1C [II-1]
7 |  |  |  | 0.5 |  | C[C@H](Oc1cc(Oc2nccs2)nc(-c2noc3c2CCC[C@@]32CCCc3sc(N)c(C#N)c32)n1)[C@@H]1CCCN1C [II-2]
8 |  | 178 | 8.6 | 3.7 |  | C[C@H](Oc1cc(O[C@H]2CCOC2)nc(-c2noc3c2CCC[C@@]32CCCc3sc(N)c(C#N)c32)n1)[C@@H]1CCCN1C [II-4]
9 |  |  | 14 | 1.4 |  | COCCOc1cc(O[C@@H](C)[C@@H]2CCCN2C)nc(-c2noc3c2CCC[C@@]32CCCc3sc(N)c(C#N)c32)n1 [II-5]
10 | 90 |  | 1.2 | 20.8 |  | C[C@H](Oc1cc(OCCO)nc(-c2noc3c2CCC[C@@]32CCCc3sc(N)c(C#N)c32)n1)[C@@H]1CCCN1C [II-6]
11 | 129 |  | 0.2 | 132 |  | C[C@H](Oc1cc(O[C@@H]2CNC2(C)C)nc(-c2noc3c2CCC[C@@]32CCCc3sc(N)c(C#N)c32)n1)[C@@H]1CCCN1C [II-9]
12 |  |  | 7.6 | 3 |  | C[C@H](Oc1cc(N(C)C)nc(-c2noc3c2CCC[C@@]32CCCc3sc(N)c(C#N)c32)n1)[C@@H]1CCCN1C [II-10]
13 |  |  | 5.2 | 3.1 |  | C[C@H](Oc1cc(Nc2ncco2)nc(-c2noc3c2CCC[C@@]32CCCc3sc(N)c(C#N)c32)n1)[C@@H]1CCCN1C [II-13]
14 |  |  | 2 | 14.5 |  | C[C@H](Oc1cc(Nc2ccncn2)nc(-c2noc3c2CCC[C@@]32CCCc3sc(N)c(C#N)c32)n1)[C@@H]1CCCN1C [II-15]
15 |  |  |  | 3.1 |  | C[C@H](Oc1cc(Nc2ccccn2)nc(-c2noc3c2CCC[C@@]32CCCc3sc(N)c(C#N)c32)n1)[C@@H]1CCCN1C [II-16]
16 |  | 363 | 3.9 | 5 |  | C[C@H](Oc1cc(Nc2ncccn2)nc(-c2noc3c2CCC[C@@]32CCCc3sc(N)c(C#N)c32)n1)[C@@H]1CCCN1C [II-17]
17 |  |  | 1.4 | 17.9 |  | C[C@H](Oc1cc(Nc2cccnn2)nc(-c2noc3c2CCC[C@@]32CCCc3sc(N)c(C#N)c32)n1)[C@@H]1CCCN1C [II-18]
18 |  |  | 0.8 | 38 |  | C[C@H](Oc1cc(N(C)CCN(C)C)nc(-c2noc3c2CCC[C@@]32CCCc3sc(N)c(C#N)c32)n1)[C@@H]1CCCN1C [II-20]
19 |  | 8 |  | 1.4 |  | C[C@H](Oc1cc(OCC2(N(C)C)CC2)nc(-c2noc3c2CCC[C@@]32CCCc3sc(N)c(C#N)c32)n1)[C@@H]1CCCN1C [II-21]
20 |  | 5 | 2.6 | 15.5 | 33 | C[C@H](Oc1cc(OCC2(N(C)C)COC2)nc(-c2noc3c2CCC[C@@]32CCCc3sc(N)c(C#N)c32)n1)[C@@H]1CCCN1C [II-22]
21 |  | 17 | 2.5 | 13.6 |  | COc1c(OCC2(N(C)C)COC2)nc(-c2noc3c2CCC[C@@]32CCCc3sc(N)c(C#N)c32)nc1O[C@@H](C)[C@@H]1CCCN1C [II-25]
22 |  | 20 |  |  |  | C[C@H]1CN(C)CCCN1c1cc(O[C@@H]2CNC2(C)C)nc(-c2noc3c2CCC[C@@]32CCCc3sc(N)c(C#N)c32)n1 [II-28]
23 |  | 9 | 0.9 | 25.5 |  | C[C@H](Oc1cc(O[C@@H]2CNC[C@@H]2F)nc(-c2noc3c2CCC[C@@]32CCCc3sc(N)c(C#N)c32)n1)[C@@H]1CCCN1C [II-29]
24 |  |  | 0.2 | 125 | 223 | CO[C@@H]1C[C@@H]([C@H](C)Oc2cc(O[C@@H]3CNC3(C)C)nc(-c3noc4c3CCC[C@@]43CCCc4sc(N)c(C#N)c43)n2)N(C)C1 [II-30]
25 |  | 1 | 0.8 | 50.7 | 357 | C[C@H](Oc1cc(O[C@@H]2CNC2(C)C)nc(-c2noc3c2CCC[C@@]32CCCc3sc(N)c(C#N)c32)n1)[C@@H]1C[C@@H](F)CN1C [II-31]
